Measured values as given in patent US12351581B2, “Compounds for FGFR inhibition” (Cogent Biosciences, Inc., priority 2023, dated 2025).
Where two headings read alike, the source gives them in different places.

Key:
FGFR2 V564I = target: T1, FGFR2 V564I (Homo sapiens, UniProt P21802, V564I); assay: FGFR mutant enzyme assay (HTRF KinEASE-TK); format: biochemical; settings: ATP 0.4 uM
T1 construct: biochemical assays using purified intracellular domains of the respective isoforms; purchased Carna Bioscience 08-546
T1 sequence (P21802 399-821 V564I limits assumed): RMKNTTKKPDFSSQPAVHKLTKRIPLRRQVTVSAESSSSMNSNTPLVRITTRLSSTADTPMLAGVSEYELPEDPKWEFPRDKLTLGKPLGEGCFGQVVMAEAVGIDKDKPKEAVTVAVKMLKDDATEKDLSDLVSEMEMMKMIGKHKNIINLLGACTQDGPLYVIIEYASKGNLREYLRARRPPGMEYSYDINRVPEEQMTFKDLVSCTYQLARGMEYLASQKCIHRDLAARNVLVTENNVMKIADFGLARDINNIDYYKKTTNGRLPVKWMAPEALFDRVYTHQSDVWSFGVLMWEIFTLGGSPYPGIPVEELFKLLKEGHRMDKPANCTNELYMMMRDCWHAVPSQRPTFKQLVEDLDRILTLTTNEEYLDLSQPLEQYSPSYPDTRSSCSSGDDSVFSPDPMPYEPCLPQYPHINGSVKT
Procedure: (§1) Activity against FGFR wild type and mutant enzymes were determined in biochemical assays using purified intracellular domains of the respective isoforms using HTRF KinEASE-TK assay technology from CisBio, now PerkinElmer. (Catalogue number 62TK0PEC). Briefly test compounds were tested in 11 point 1:3 serial dilutions, typical final concentration range from 10,000 nM to 0.17 nM. Test compounds were dissolved in DMSO and added to assay plates using acoustic transfer. Enzyme was pre-incubated with test compound for 30 minutes and the assay was initiated by addition of ATP and TK-peptide substrate. After 60 minutes at room temperature the reaction was quenched with detection reagent and incubated for an additional 60 minutes at room temperature. The plates were read using a multimode reader and the emission ratio of 665 nm to 615 nm was determined. This ratio was converted to percent of control (POC). [1-(high control-sample signal)/(high control-low control)]*100. Wells without compound were used to determine high control values and wells without enzyme were used to determine low control values. The POC values were fit using a four-parameter logistic model and the value where the fit curve was equal to 50 POC was reported as the IC50 using the Signals Vitro Vivo software package (PerkinElmer). Final assay conditions were: 50 mM HEPES pH7.5, 10 mM MgCl2, 1 mM EDTA, 0.01% Brij-35, 2 mM MnCl2, 1 mM DTT, and 0.5 uM TK-peptide. The enzyme source, catalogue number, final enzyme concentration, and final ATP concentration can be found in the tables 1-2 below.

FGFR2 N549H = target: T2, FGFR2 N549H (Homo sapiens, UniProt P21802, N549H); assay: FGFR mutant enzyme assay (HTRF KinEASE-TK); format: biochemical; settings: ATP 0.9 uM
T2 construct: biochemical assays using purified intracellular domains of the respective isoforms; purchased Carna Bioscience 08-532
T2 sequence (P21802 399-821 N549H limits assumed): as the sequence (P21802 399-821 V564I limits assumed) above, with N151H, I166V counted along it
Procedure: as §1

FGFR2 V564F = target: T3, FGFR2 V564F (Homo sapiens, UniProt P21802, V564F); assay: FGFR mutant enzyme assay (HTRF KinEASE-TK); format: biochemical; settings: ATP 1.5 uM
T3 construct: biochemical assays using purified intracellular domains of the respective isoforms; purchased SignalChem Biotech F05-12FG
T3 sequence (P21802 399-821 V564F limits assumed): as the sequence (P21802 399-821 V564I limits assumed) above, with I166F counted along it
Procedure: as §1

FGFR2 = target: T4, FGFR2 (Homo sapiens, UniProt P21802); assay: FGFR wild type enzyme assay (HTRF KinEASE-TK); format: biochemical; settings: ATP 2 uM
T4 construct: biochemical assays using purified intracellular domains of the respective isoforms; purchased Carna Bioscience 08-134
T4 sequence (P21802 399-821 limits assumed): as the sequence (P21802 399-821 V564I limits assumed) above, with I166V counted along it
Procedure: as §1

FGFR2-WT = FGFR2-WT (Homo sapiens, UniProt P21802); assay: Phosphorylated FGFR2-WT (pFGFR2-WT) cell assay, KATOIII cells; format: cell-based; settings: 1 hour incubation, phospho FGFR2 HTRF
Sequence of FGFR2-WT (P21802 430-767 limits assumed): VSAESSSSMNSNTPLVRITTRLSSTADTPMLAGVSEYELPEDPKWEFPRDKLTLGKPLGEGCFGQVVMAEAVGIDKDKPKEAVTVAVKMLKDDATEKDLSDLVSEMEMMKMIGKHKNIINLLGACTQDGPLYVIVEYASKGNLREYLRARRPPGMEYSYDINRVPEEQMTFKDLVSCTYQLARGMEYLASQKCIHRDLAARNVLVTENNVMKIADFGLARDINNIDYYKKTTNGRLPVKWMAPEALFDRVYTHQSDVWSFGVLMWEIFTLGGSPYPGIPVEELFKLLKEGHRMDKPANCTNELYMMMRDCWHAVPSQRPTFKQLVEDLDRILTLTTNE
Procedure: KATOIII cells were grown in the appropriate growth medium, IMDM supplemented with 20% fetal bovine serum. Cells were seeded into a 384-well at 1×10^5 cells/25 μL/well. Cells were treated with compound using three-fold serial dilutions at final concentrations ranging from 10 μM to 0.5 nM. Compound was incubated on cells for 1 hour at 37° C., 5% CO2.
Following the 1-hour incubation with compounds, cell lysates were prepared and phospho FGFR2 was measured using the HTRF Phospho-FGFR2 (TYR653/654) Detection Kits (CisBio, cat #64FGFR2Y6PEG). 8 μL of cell lysis buffer (4×) supplied with 1× Phospho and Total protein blocking reagent (CisBio, cat #64FGFR2Y6PEG, CisBio, cat #64KB1AAC) was then added to the wells. Cells were incubated with lysis buffer for 40 minutes at 4° C. under shaking conditions. Plates were centrifuged at 1500 rpm for 3 min and then 16 μL of cell lysate was transferred from the cell-culture plate to a small volume detection plate with the added premixed antibody solutions (4 μL) (CisBio, cat #64FGFR2Y6PEG). Plates were centrifuged at 1000 rpm for 1 min then incubated at 25° C. for 120 min, then overnight at 4° C. Plates were read on the En Vision multimode plate reader via HTRF dual wavelength detection. One hundred percent of control (POC) was determined using DMSO treated samples, and 0 POC was determined using the top concentration of a control compound. A 4-parameter logistic curve was fit to the POC values as a function of compound concentration to determine the IC50 value.

[1] = compound table after the examples, read-out: Enz FGFR2

Row | Compound | IC50 (FGFR2 V564I) [nM] | IC50 (FGFR2 N549H) [nM] | IC50 (FGFR2 V564F) [nM] | IC50 (FGFR2; Table 3, read-out: FGFR2 Enz) [nM] | IC50 (FGFR2; [1]) [nM] | IC50 (FGFR2-WT) [nM]
1 | C[C@@H](Oc1cc(-c2nnn(C)c2N)cn2ncc(C#N)c12)c1ccc(F)cn1 [Compound 34, (R)-6-(5-amino-1-methyl-1H-1,2,3-triazol-4-yl)-4-(1-(5-fluoropyridin-2-yl)ethoxy)pyrazolo[1,5-a]pyridine-3-carbonitrile] | 12 | 3 | 10 | 2.6 | 2.6 | 17
2 | C[C@@H](Oc1cc(-c2cnn(C)c2N)cn2ncc(C#N)c12)c1ccccn1 [Compound 35, (R)-6-(5-amino-1-methyl-1H-pyrazol-4-yl)-4-(1-(pyridin-2-yl)ethoxy)pyrazolo[1,5-a]pyridine-3-carbonitrile] | 2.7 | 1 | 2 | 1 | 1 | 5
3 | CC(=O)N[C@H]1CC[C@H](n2ncc(-c3cc(O[C@H](C)c4ccc(F)cn4)c4c(C#N)cnn4c3)c2C)CC1 [Compound 36, N-((1R,4r)-4-(4-(3-cyano-4-((R)-1-(5-fluoropyridin-2-yl)ethoxy)pyrazolo[1,5-a]pyridin-6-yl)-5-methyl-1H-pyrazol-1-yl)cyclohexyl)acetamide] | 2 | 0.5 | 1.5 | 0.4 | 0.4 | 4
4 | Cc1c(-c2cc(O[C@H](C)c3ccc(F)cn3)c3c(C#N)cnn3c2)cnn1[C@H]1CCCN(C[C@H](O)CO)C1 [Compound 37, 6-(1-((S)-1-((S)-2,3-dihydroxypropyl)piperidin-3-yl)-5-methyl-1H-pyrazol-4-yl)-4-((R)-1-(5-fluoropyridin-2-yl)ethoxy)pyrazolo[1,5-a]pyridine-3-carbonitrile] | 1.6 | 0.3 | 1 | 0.5 | 0.5 | 5.6
5 | Cc1c(-c2cc(O[C@H](C)c3ccc(F)cn3)c3c(C#N)cnn3c2)cnn1[C@H]1CCCN(C(CO)CO)C1 [Compound 38, 6-(1-((S)-1-(1,3-dihydroxypropan-2-yl)piperidin-3-yl)-5-methyl-1H-pyrazol-4-yl)-4-((R)-1-(5-fluoropyridin-2-yl)ethoxy)pyrazolo[1,5-a]pyridine-3-carbonitrile] | 1.3 | 0.3 | 1 | 0.4 | 0.4 | 6
6 | Cc1c(-c2cc(O[C@H](C)c3ccc(F)cn3)c3c(C#N)cnn3c2)cnn1C1CCN(C[C@H](O)CO)CC1 [Compound 39, 6-(1-(1-((S)-2,3-dihydroxypropyl)piperidin-4-yl)-5-methyl-1H-pyrazol-4-yl)-4-((R)-1-(5-fluoropyridin-2-yl)ethoxy)pyrazolo[1,5-a]pyridine-3-carbonitrile] | 1 | 0.4 | 1 | 0.5 | 0.5 | 5.5
7 | Cc1c(-c2cc(O[C@H](C)c3ccc(F)cn3)c3c(C#N)cnn3c2)cnn1[C@H]1CCCN(C(=O)C2(O)CCC2)C1 [Compound 40, 4-((R)-1-(5-fluoropyridin-2-yl)ethoxy)-6-(1-((S)-1-(1-hydroxycyclobutane-1-carbonyl)piperidin-3-yl)-5-methyl-1H-pyrazol-4-yl)pyrazolo[1,5-a]pyridine-3-carbonitrile] | 3 | 0.6 | 2 | 1 | 1 | 6.7
8 | Cc1c(-c2cc(O[C@H](C)c3ccc(F)cn3)c3c(C#N)cnn3c2)cnn1C1CCN(C(=O)[C@H](C)O)CC1 [Compound 41, 4-((R)-1-(5-fluoropyridin-2-yl)ethoxy)-6-(1-(1-((S)-2-hydroxypropanoyl)piperidin-4-yl)-5-methyl-1H-pyrazol-4-yl)pyrazolo[1,5-a]pyridine-3-carbonitrile] | 2 | 0.7 | 2 | 0.5 | 0.5 | 4
9 | Cc1c(-c2cc(O[C@H](C)c3ccc(F)cn3)c3c(C#N)cnn3c2)cnn1C1CCN(C(=O)CO)CC1 [Compound 42, (R)-4-(1-(5-fluoropyridin-2-yl)ethoxy)-6-(1-(1-(2-hydroxyacetyl)piperidin-4-yl)-5-methyl-1H-pyrazol-4-yl)pyrazolo[1,5-a]pyridine-3-carbonitrile] | 2 | 0.65 | 1.7 | 0.6 | 0.6 | 4
10 | Cc1c(-c2cc(O[C@H](C)c3ccc(F)cn3)c3c(C#N)cnn3c2)cnn1C1CCN(C(=O)C2(N)CCC2)CC1 [Compound 43, (R)-6-(1-(1-(1-aminocyclobutane-1-carbonyl)piperidin-4-yl)-5-methyl-1H-pyrazol-4-yl)-4-(1-(5-fluoropyridin-2-yl)ethoxy)pyrazolo[1,5-a]pyridine-3-carbonitrile] | 3 | 1 | 3 | 1 | 1 | 9

More lines, now with the values ahead:

Row | IC50 (FGFR2 V564I) [nM] | IC50 (FGFR2 N549H) [nM] | IC50 (FGFR2 V564F) [nM] | IC50 (FGFR2; Table 3, read-out: FGFR2 Enz) [nM] | IC50 (FGFR2; [1]) [nM] | IC50 (FGFR2-WT) [nM] | Compound
11 | 1.5 | 0.4 | 1 | 0.5 | 0.5 | 8 | Cc1c(-c2cc(O[C@H](C)c3ccc(F)cn3)c3c(C#N)cnn3c2)cnn1C1CCN(C(=O)[C@@H](N)C(C)C)CC1 [Compound 44, 6-(1-(1-(L-valyl)piperidin-4-yl)-5-methyl-1H-pyrazol-4-yl)-4-((R)-1-(5-fluoropyridin-2-yl)ethoxy)pyrazolo[1,5-a]pyridine-3-carbonitrile]
12 | 23 | 7 | 13 | 6.5 | 6.5 | 60 | Cc1c(-c2cc(O[C@@H](C)c3ccc(F)cn3)c3c(C#N)cnn3c2)cnn1[C@H]1CC[C@H](O)CC1 [Compound 45, 4-((S)-1-(5-fluoropyridin-2-yl)ethoxy)-6-(1-((1r,4S)-4-hydroxycyclohexyl)-5-methyl-1H-pyrazol-4-yl)pyrazolo[1,5-a]pyridine-3-carbonitrile]
13 | 1 | 0.3 | 1 | 0.3 | 0.3 | 3 | Cc1c(-c2cc(O[C@H](C)c3ccc(F)cn3)c3c(C#N)cnn3c2)cnn1[C@H]1CC[C@@H](O)CC1 [Compound 46, 4-((R)-1-(5-fluoropyridin-2-yl)ethoxy)-6-(1-((1s,4S)-4-hydroxycyclohexyl)-5-methyl-1H-pyrazol-4-yl)pyrazolo[1,5-a]pyridine-3-carbonitrile]
14 | 1 | 0.4 | 1 | 0.3 | 0.3 | 4 | C[C@@H](Oc1cc(-c2cnn(C3CCN(C#N)CC3)c2N)cn2ncc(C#N)c12)c1ccc(F)cn1 [Compound 47, (R)-6-(5-amino-1-(1-cyanopiperidin-4-yl)-1H-pyrazol-4-yl)-4-(1-(5-fluoropyridin-2-yl)ethoxy)pyrazolo[1,5-a]pyridine-3-carbonitrile]
15 | 1 | 0.4 | 1 | 0.4 | 0.4 | 3 | Cc1c(-c2cc(O[C@H](C)c3ccc(F)cn3)c3c(C#N)cnn3c2)cnn1[C@H]1CCCN(C(=O)[C@@H](C)O)C1 [Compound 48, 4-((R)-1-(5-fluoropyridin-2-yl)ethoxy)-6-(1-((S)-1-((R)-2-hydroxypropanoyl)piperidin-3-yl)-5-methyl-1H-pyrazol-4-yl)pyrazolo[1,5-a]pyridine-3-carbonitrile]
